Assay results from patent publication US20040087792A1, “Tryptase-inhibitors” (priority 2001, published 2004).
pKi: −log10 of the molar value. Where a name gives a salt, the structure may show the parent alone.

Biological target: human tryptase
Experiment: Inhibition of human tryptase (equilibrium, chromogenic substrate tos-Gly-Pro-arg-pNA)
Format: biochemical
Details: in the presence of substrate; heparin 0.1-50 μg/ml; cleavage monitored at 405 nm; read-out: Klapp (apparent dissociation constant Kiapp)
Excerpt: The documented pathophysiological effects of mast cell tryptase are caused directly by the enzymatic activity of the protease. Accordingly, they are reduced or blocked by inhibitors which inhibit the enzymatic activity of the tryptase. A suitable measure for the affinity of a reversible inhibitor to the target protease is the equilibrium dissociation constant Ki of the enzyme-inhibitor complex. This Ki value can be determined via the effect of the inhibitor on the tryptase-induced cleavage of a chromogenic peptide-p-nitroanilide substrate or a fluorogenic peptide-aminomethylcoumarin substrate.
The dissociation constants for the tryptase-inhibitor complexes are determined under equilibrium conditions in accordance with the general proposals of Bieth (Bieth J G, Pathophysiological Interpretation of kinetic constants of protease inhibitors, Bull. Europ. Physiopath. Resp. 16:183-195, 1980) and the methods of Sommerhoff et al. (Sommerhoff C P et al., A Kazal-type inhibitor of human mast cell tryptase: Isolation from the medical leech Hirudo medicinalis, characterization, and sequence analysis, Biol. Chem. Hoppe-Seyler 375: 685-694, 1994).
Human tryptase is isolated from lung tissue or prepared recombinantly; the specific activity of the protease, determined by titration, is usually greater than 85% of the theoretical value. […]

## CCOC(=O)CN(CCNC(=O)OCC#Cc1ccc(C#CCOC(=O)NCCN(CC(=O)OCC)C(=O)CCc2ccc(CN)cc2)cc1)C(=O)CCc1ccc(CN)cc1 [Compound 1, 1,4-Bis-{N-[3-(4-aminomethyl-phenyl)-propionyl]-N-(ethoxycarbonyl-methyl)-amino-3-(ethyl-aminocarbonyloxy)-prop-1-ynyl}-benzene dihydrochloride]
  pKi: 7.46

## CCOC(=O)CN(CCNC(=O)OCC#CCOC(=O)NCCN(CC(=O)OCC)C(=O)CCc1ccc(CN)cc1)C(=O)CCc1ccc(CN)cc1 [Compound 3, 1,4-Bis{N-[3-(4-(aminomethyl-phenyl)-propionyl]-N-(ethoxycarbonyl-methyl)-amino-3-(ethyl-aminocarbonyloxy)}-2-butynedihydrochloride]
  pKi: 8.27
